Data taken from ChEMBL document CHEMBL4373716, “Curcumin as tyrosine kinase inhibitor in cancer treatment” (Eur J Med Chem, 2019).
Converted amounts (≈) assume the structure as drawn.

Assays:
[1] = Cmax in human at […], po after 3 months; type: ADME, organism-based; set-up: route oral; details: in vivo
[2] = Tmax in human at […], po after 3 months; type: ADME, organism-based; details: in vivo
[3] = Aqueous solubility of the compound; type: physicochemical

`COc1cc(/C=C/C(=O)CC(=O)/C=C/c2ccc(O)c(OC)c2)ccc1O` [CURCUMIN] gave a Cmax [1] of 1770 nM, a Tmax [2] of 1 to 2 h and a solubility [3] of 1000 to 10000 µg/mL (≈ 2.71 to 27.1 mM).
